Measurements: patent US20250034153A1, “TRIAZOLOPYRIMIDINES AS A2A / A2B INHIBITORS” (Incyte Corporation, priority 2019, published 2025)
Values belong to the compound of their own block, whether it stands above or below them.

What was measured:
Adenosine A2A = Adenosine A2A (Homo sapiens (Human), UniProt P29274); test: A2A Tag-lite HTRF assay (Example C); settings: Tag-lite Adenosine A2A labeled cells, Red antagonist fluorescent ligand 12.5 nM, one-site competitive binding; read-out: A2A_Ki
Experimental: Example C. A2A Tag-Lite® HTRF Assay
Assays were conducted in black low volume 384-well polystyrene plates (Greiner 784076-25) in a final volume of 10 μL. Test compounds were first serially diluted in DMSO and 100 nl added to the plate wells before the addition of other reaction components. The final concentration of DMSO was 1%. Tag-lite® Adenosine A2A labeled cells (CisBio C1TT1A2A) were diluted 1:5 into Tag-lite buffer (CisBio LABMED) and spun 1200 g for 5 mins. The pellet was resuspended at a volume 10.4× the initial cell suspension volume in Tag-lite buffer, and Adenosine A2A Receptor Red antagonist fluorescent ligand (CisBio L0058RED) added at 12.5 nM final concentration. 10 ul of the cell and ligand mix was added to the assay wells and incubated at room temperature for 45 minutes before reading on a PHERAstar FS plate reader (BMG Labtech) with HTRF 337/620/665 optical module. Percent binding of the fluorescent ligand was calculated; where 100 nM of A2A antagonist control ZM 241385 (Tocris 1036) displaces the ligand 100% and 1% DMSO has 0% displacement. The % binding data versus the log of the inhibitor concentration was fitted to a one-site competitive binding model (GraphPad Prism version 7.02) where the ligand constant=12.5 nM and the ligand Kd=1.85 nM.

[1] = molecular target: human adenosine A2B receptor (Homo sapiens (Human), UniProt P29275); test: Adenosine A2B receptor cyclic AMP GS assay (Example B); format: cell-based; settings: HEK-293 cells expressing human A2B, agonist NECA 12 nM, cAMP accumulation (FRET); read-out: A2B_cAMP_EC50
human adenosine A2B receptor, sequence (P29275 whole entry): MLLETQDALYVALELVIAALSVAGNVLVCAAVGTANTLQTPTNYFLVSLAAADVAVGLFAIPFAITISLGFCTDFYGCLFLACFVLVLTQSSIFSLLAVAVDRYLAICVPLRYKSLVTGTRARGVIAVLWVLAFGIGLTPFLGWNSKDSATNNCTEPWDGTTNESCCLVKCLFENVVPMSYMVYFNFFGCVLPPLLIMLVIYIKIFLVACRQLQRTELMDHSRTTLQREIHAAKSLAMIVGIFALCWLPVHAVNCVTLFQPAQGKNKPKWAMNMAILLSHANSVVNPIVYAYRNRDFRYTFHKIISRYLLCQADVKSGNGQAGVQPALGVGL
Experimental: Example B. Adenosine A2B Receptor Cyclic AMP GS Assay
Stably transfected HEK-293 cells expressing the human adenosine A2B receptor (Perkin Elmer) were maintained in MEM culture medium with 10% FBS and 100 μg/ml Geneticin (Life Technologies). 18 to 24 hours prior to assay, geneticin was removed from culture. The cisbio cAMP-GS Dynamic kit utilizing the FRET (Fluorescence Resonance Energy Transfer) technology was used to measure cAMP accumulation in the cells. Compounds of the present disclosure at an appropriate concentration were mixed with 10000 cells/well in white 96 well half area plates (Perkin Elmer) for 30 min at RT gently shaking. Agonist, NECA (R&D Technologies) at 12 nM was added to each well for 60 min at RT gently shaking. Detection reagents, d2-labeled cAMP (acceptor) and anti-cAMP cryptate (donor) were added to each well for 60 min at RT gently shaking. Plates were read on Pherastar (BMG Labtech), fluorescence ratio 665/620 was calculated and EC50 determination was performed by fitting the curve of percent of control versus the log of the compound concentration using GraphPad Prism.

Adenosine A2A, sequence (P29274 whole entry): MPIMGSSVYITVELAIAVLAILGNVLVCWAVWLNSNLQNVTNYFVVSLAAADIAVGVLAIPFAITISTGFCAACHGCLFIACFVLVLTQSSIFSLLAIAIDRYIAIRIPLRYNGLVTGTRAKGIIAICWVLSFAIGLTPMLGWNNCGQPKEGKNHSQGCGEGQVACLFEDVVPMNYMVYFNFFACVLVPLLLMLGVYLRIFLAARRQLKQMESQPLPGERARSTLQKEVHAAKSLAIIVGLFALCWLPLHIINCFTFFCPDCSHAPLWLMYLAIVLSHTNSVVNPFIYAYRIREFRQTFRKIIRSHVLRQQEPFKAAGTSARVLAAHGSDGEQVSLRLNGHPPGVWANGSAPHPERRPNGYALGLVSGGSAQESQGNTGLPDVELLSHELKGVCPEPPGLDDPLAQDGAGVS

Ki (Adenosine A2A): ≤ 0.01 µM | EC50 [1]: ≤ 0.01 µM
SMILES: N#Cc1cccc(-c2nc(N)n3nc(COc4ncccc4C#N)nc3c2-c2ccncn2)c1 [Example 42, 2-((5-amino-7-(3-cyanophenyl)-8-(pyrimidin-4-yl)-[1,2,4]triazolo[1,5-c]pyrimidin-2-yl)methoxy)nicotinonitrile]

Ki (Adenosine A2A): ≤ 0.01 µM | EC50 [1]: ≤ 0.01 µM
SMILES: Cn1cc(-c2c(-c3cccc(C#N)c3)nc(N)n3nc(COc4ncccc4C#N)nc23)ccc1=O [Example 43, 2-((5-amino-7-(3-cyanophenyl)-8-(1-methyl-6-oxo-1,6-dihydropyridin-3-yl)-[1,2,4]triazolo[1,5-c]pyrimidin-2-yl)methoxy)nicotinonitrile]

Ki (Adenosine A2A): ≤ 0.01 µM | EC50 [1]: 0.01 to 0.1 µM
SMILES: Cn1nc(-c2c(-c3cccc(C#N)c3)nc(N)n3nc(COc4ncccc4C#N)nc23)ccc1=O [Example 44, 2-((5-amino-7-(3-cyanophenyl)-8-(1-methyl-6-oxo-1,6-dihydropyridazin-3-yl)-[1,2,4]triazolo[1,5-c]pyrimidin-2-yl)methoxy)nicotinonitrile]

Ki (Adenosine A2A): ≤ 0.01 µM | EC50 [1]: 0.1 to 1 µM
SMILES: Cc1cc(-c2c(-c3cccc(C#N)c3)nc(N)n3nc(COc4ncccc4C#N)nc23)cc(C)n1 [Example 46, 2-((5-amino-7-(3-cyanophenyl)-8-(2,6-dimethylpyridin-4-yl)-[1,2,4]triazolo[1,5-c]pyrimidin-2-yl)methoxy)nicotinonitrile]

Ki (Adenosine A2A): ≤ 0.01 µM | EC50 [1]: 0.01 to 0.1 µM
SMILES: COc1cc(-c2c(-c3cccc(C#N)c3)nc(N)n3nc(COc4ncccc4C#N)nc23)cc(C)n1 [Example 47, 2-((5-amino-7-(3-cyanophenyl)-8-(2-methoxy-6-methylpyridin-4-yl)-[1,2,4]triazolo[1,5-c]pyrimidin-2-yl)methoxy)nicotinonitrile]

Ki (Adenosine A2A): ≤ 0.01 µM | EC50 [1]: ≤ 0.01 µM
SMILES: N#Cc1cccc(-c2nc(N)n3nc(Cn4nnc(-c5ccccn5)n4)nc3c2-c2ccncn2)c1 [Example 50, 3-(5-amino-2-((5-(pyridin-2-yl)-2H-tetrazol-2-yl)methyl)-8-(pyrimidin-4-yl)-[1,2,4]triazolo[1,5-c]pyrimidin-7-yl)benzonitrile]

Second part, the compound before the results:

SMILES: Cc1cc(-c2c(-c3cccc(C#N)c3)nc(N)n3nc(OCc4ncccc4C)nc23)cc(C)n1 [Example 21, 3-(5-amino-8-(2,6-dimethylpyridin-4-yl)-2-((3-methylpyridin-2-yl)methoxy)-[1,2,4]triazolo[1,5-c]pyrimidin-7-yl)benzonitrile]
Ki (Adenosine A2A): ≤ 0.01 µM | EC50 [1]: 0.01 to 0.1 µM

SMILES: CCn1cc(-c2c(-c3cccc(C#N)c3)nc(N)n3nc(OCc4ncccc4C)nc23)ccc1=O [Example 22, 3-(5-amino-8-(1-ethyl-6-oxo-1,6-dihydropyridin-3-yl)-2-((3-methylpyridin-2-yl)methoxy)-[1,2,4]triazolo[1,5-c]pyrimidin-7-yl)benzonitrile]
Ki (Adenosine A2A): ≤ 0.01 µM | EC50 [1]: 0.01 to 0.1 µM

SMILES: Cc1cccnc1CNc1nc2c(-c3ccc(=O)n(C)c3)c(-c3cccc(C#N)c3F)nc(N)n2n1 [Example 23, 3-(5-amino-8-(1-methyl-6-oxo-1,6-dihydropyridin-3-yl)-2-(((3-methylpyridin-2-yl)methyl)amino)-[1,2,4]triazolo[1,5-c]pyrimidin-7-yl)-2-fluorobenzonitrile]
Ki (Adenosine A2A): ≤ 0.01 µM | EC50 [1]: 0.01 to 0.1 µM

SMILES: CCn1cc(-c2c(-c3cccc(C#N)c3F)nc(N)n3nc(NCc4ncccc4C)nc23)ccc1=O [Example 24, 3-(5-amino-8-(1-ethyl-6-oxo-1,6-dihydropyridin-3-yl)-2-(((3-methylpyridin-2-yl)methyl)amino)-[1,2,4]triazolo[1,5-c]pyrimidin-7-yl)-2-fluorobenzonitrile]
Ki (Adenosine A2A): ≤ 0.01 µM | EC50 [1]: 0.01 to 0.1 µM

SMILES: Cc1cccnc1CNc1nc2c(-c3ccc(=O)n(C)n3)c(-c3cccc(C#N)c3F)nc(N)n2n1 [Example 25, 3-(5-amino-8-(1-methyl-6-oxo-1,6-dihydropyridazin-3-yl)-2-(((3-methylpyridin-2-yl)methyl)amino)-[1,2,4]triazolo[1,5-c]pyrimidin-7-yl)-2-fluorobenzonitrile]
Ki (Adenosine A2A): ≤ 0.01 µM | EC50 [1]: ≤ 0.01 µM

SMILES: COc1cc(-c2c(-c3cccc(C#N)c3F)nc(N)n3nc(NCc4ncccc4C)nc23)cc(C)n1 [Example 26, 3-(5-amino-8-(2-methoxy-6-methylpyridin-4-yl)-2-(((3-methylpyridin-2-yl)methyl)amino)-[1,2,4]triazolo[1,5-c]pyrimidin-7-yl)-2-fluorobenzonitrile]
Ki (Adenosine A2A): ≤ 0.01 µM | EC50 [1]: 0.01 to 0.1 µM

SMILES: Cn1nc(-c2c(-c3cccc(C#N)c3)nc(N)n3nc(Cc4ccccn4)nc23)ccc1=O [Example 27, 3-(5-amino-8-(1-methyl-6-oxo-1,6-dihydropyridazin-3-yl)-2-(pyridin-2-ylmethyl)-[1,2,4]triazolo[1,5-c]pyrimidin-7-yl)benzonitrile]
Ki (Adenosine A2A): ≤ 0.01 µM | EC50 [1]: ≤ 0.01 µM

SMILES: N#Cc1cccc(-c2nc(N)n3nc(OCc4ncccc4F)nc3c2-c2ccncn2)c1 [Example 28, 3-(5-amino-2-((3-fluoropyridin-2-yl)methoxy)-8-(pyrimidin-4-yl)-[1,2,4]triazolo[1,5-c]pyrimidin-7-yl)benzonitrile]
Ki (Adenosine A2A): ≤ 0.01 µM | EC50 [1]: ≤ 0.01 µM

SMILES: Cn1cc(-c2c(-c3cccc(C#N)c3)nc(N)n3nc(OCc4ncccc4F)nc23)ccc1=O [Example 29, 3-(5-amino-2-((3-fluoropyridin-2-yl)methoxy)-8-(1-methyl-6-oxo-1,6-dihydropyridin-3-yl)-[1,2,4]triazolo[1,5-c]pyrimidin-7-yl)benzonitrile]
Ki (Adenosine A2A): ≤ 0.01 µM | EC50 [1]: ≤ 0.01 µM

SMILES: Cn1nc(-c2c(-c3cccc(C#N)c3)nc(N)n3nc(OCc4ncccc4F)nc23)ccc1=O [Example 30, 3-(5-amino-2-((3-fluoropyridin-2-yl)methoxy)-8-(1-methyl-6-oxo-1,6-dihydropyridazin-3-yl)-[1,2,4]triazolo[1,5-c]pyrimidin-7-yl)benzonitrile]
Ki (Adenosine A2A): ≤ 0.01 µM | EC50 [1]: ≤ 0.01 µM

SMILES: Cc1cc(-c2c(-c3cccc(C#N)c3)nc(N)n3nc(OCc4ncccc4F)nc23)cc(C)n1 [Example 32, 3-(5-amino-8-(2,6-dimethylpyridin-4-yl)-2-((3-fluoropyridin-2-yl)methoxy)-[1,2,4]triazolo[1,5-c]pyrimidin-7-yl)benzonitrile]
Ki (Adenosine A2A): ≤ 0.01 µM | EC50 [1]: 0.01 to 0.1 µM

SMILES: COc1cc(-c2c(-c3cccc(C#N)c3)nc(N)n3nc(OCc4ncccc4F)nc23)cc(C)n1 [Example 33, 3-(5-amino-2-((3-fluoropyridin-2-yl)methoxy)-8-(2-methoxy-6-methylpyridin-4-yl)-[1,2,4]triazolo[1,5-c]pyrimidin-7-yl)benzonitrile]
Ki (Adenosine A2A): ≤ 0.01 µM | EC50 [1]: ≤ 0.01 µM

SMILES: N#Cc1cccc(-c2nc(N)n3nc(Nc4ccccn4)nc3c2-c2ccncn2)c1 [Example 34, 3-(5-amino-2-(pyridin-2-ylamino)-8-(pyrimidin-4-yl)-[1,2,4]triazolo[1,5-c]pyrimidin-7-yl)benzonitrile]
Ki (Adenosine A2A): ≤ 0.01 µM | EC50 [1]: ≤ 0.01 µM

SMILES: Cc1cccc(Nc2nc3c(-c4ccncn4)c(-c4cccc(C#N)c4)nc(N)n3n2)n1 [Example 40, 3-(5-amino-2-((6-methylpyridin-2-yl)amino)-8-(pyrimidin-4-yl)-[1,2,4]triazolo[1,5-c]pyrimidin-7-yl)benzonitrile]
Ki (Adenosine A2A): ≤ 0.01 µM | EC50 [1]: ≤ 0.01 µM

SMILES: N#Cc1cccc(-c2nc(N)n3nc(COc4ccccn4)nc3c2-c2ccncn2)c1 [Example 41, 3-(5-amino-2-((pyridin-2-yloxy)methyl)-8-(pyrimidin-4-yl)-[1,2,4]triazolo[1,5-c]pyrimidin-7-yl)benzonitrile]
Ki (Adenosine A2A): ≤ 0.01 µM | EC50 [1]: ≤ 0.01 µM
